In PubChem BioAssay (NCI):
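Five concentrations, 48 hours, 96-well plates. GI50 = concentration required for 50% inhibition of growth. The concentration for full growth arrest is given as TGI.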

Columns and labels:
Test in all cases: growth of human tumour cells (NCI), 48 h
HT29 colon = tested on: HT29 colon
HOP-92 NSCLC = tested on: HOP-92 NSCLC
CAKI-1 renal = tested on: CAKI-1 renal
NCI/ADR-RES ovarian = tested on: NCI/ADR-RES ovarian
HS 578T breast = tested on: HS 578T breast
SN12C renal = tested on: SN12C renal
SF-295 CNS = tested on: SF-295 CNS
MOLT-4 leukemia = tested on: MOLT-4 leukemia
OVCAR-5 ovarian = tested on: OVCAR-5 ovarian
MDA-MB-231 breast = tested on: MDA-MB-231 breast
CCRF-CEM leukemia = tested on: CCRF-CEM leukemia
HL-60(TB) leukemia = tested on: HL-60(TB) leukemia
LOX IMVI melanoma = tested on: LOX IMVI melanoma
T-47D breast = tested on: T-47D breast
SR leukemia = tested on: SR leukemia
BT-549 breast = tested on: BT-549 breast
U251 CNS = tested on: U251 CNS
SW-620 colon = tested on: SW-620 colon
OVCAR-8 ovarian = tested on: OVCAR-8 ovarian
SK-MEL-28 melanoma = tested on: SK-MEL-28 melanoma
M14 melanoma = tested on: M14 melanoma
MCF7 breast = tested on: MCF7 breast
SNB-19 CNS = tested on: SNB-19 CNS
A498 renal = tested on: A498 renal
K-562 leukemia = tested on: K-562 leukemia
COLO 205 colon = tested on: COLO 205 colon
NCI-H23 lung = tested on: NCI-H23 lung
OVCAR-3 ovarian = tested on: OVCAR-3 ovarian
SF-539 CNS = tested on: SF-539 CNS
HCT-15 colon = tested on: HCT-15 colon
NCI-H460 lung = tested on: NCI-H460 lung
SF-268 CNS = tested on: SF-268 CNS
NCI-H226 lung = tested on: NCI-H226 lung
A549 NSCLC = tested on: A549 NSCLC
UACC-62 melanoma = tested on: UACC-62 melanoma
MDA-MB-435 = tested on: MDA-MB-435
SK-MEL-2 melanoma = tested on: SK-MEL-2 melanoma
HOP-62 NSCLC = tested on: HOP-62 NSCLC
TK-10 renal = tested on: TK-10 renal
PC-3 prostate = tested on: PC-3 prostate
ACHN renal = tested on: ACHN renal
OVCAR-4 ovarian = tested on: OVCAR-4 ovarian
UO-31 renal = tested on: UO-31 renal
HCC-2998 colon = tested on: HCC-2998 colon
KM12 colon = tested on: KM12 colon
IGROV1 ovarian = tested on: IGROV1 ovarian
786-0 renal = tested on: 786-0 renal
SK-MEL-5 melanoma = tested on: SK-MEL-5 melanoma
MALME-3M melanoma = tested on: MALME-3M melanoma
SNB-75 CNS = tested on: SNB-75 CNS
RPMI-8226 leukemia = tested on: RPMI-8226 leukemia
HCT-116 colon = tested on: HCT-116 colon
SK-OV-3 ovarian = tested on: SK-OV-3 ovarian
UACC-257 melanoma = tested on: UACC-257 melanoma
DU-145 prostate = tested on: DU-145 prostate
RXF 393 renal = tested on: RXF 393 renal
NCI-H522 lung = tested on: NCI-H522 lung

C[C@]12CC[C@@H]3c4ccc(O)cc4CC[C@H]3[C@@H]1CC[C@@H]2NS(=O)(=O)c1ccc(-c2ccccc2)cc1
GI50 (HT29 colon): 3.3 µM | TGI (HT29 colon): 9.16 µM | GI50 (HOP-92 NSCLC): 2.09 µM | TGI (HOP-92 NSCLC): 9.68 µM | GI50 (CAKI-1 renal): 3.57 µM | TGI (CAKI-1 renal): > 100 µM | GI50 (NCI/ADR-RES ovarian): 3.87 µM | TGI (NCI/ADR-RES ovarian): > 100 µM | GI50 (HS 578T breast): 7.37 µM | TGI (HS 578T breast): > 100 µM | GI50 (SN12C renal): 2.75 µM | TGI (SN12C renal): 10.3 µM | GI50 (SF-295 CNS): 3.06 µM | TGI (SF-295 CNS): 13.2 µM | GI50 (MOLT-4 leukemia): 3.47 µM | TGI (MOLT-4 leukemia): > 100 µM | GI50 (OVCAR-5 ovarian): 4.76 µM | TGI (OVCAR-5 ovarian): 19.2 µM | GI50 (MDA-MB-231 breast): 4.58 µM | TGI (MDA-MB-231 breast): 19.6 µM | GI50 (CCRF-CEM leukemia): 3.34 µM | TGI (CCRF-CEM leukemia): > 100 µM | GI50 (HL-60(TB) leukemia): 6.26 µM | TGI (HL-60(TB) leukemia): 47.6 µM | GI50 (LOX IMVI melanoma): 10.6 µM | TGI (LOX IMVI melanoma): 23.9 µM | GI50 (T-47D breast): 3.47 µM | TGI (T-47D breast): 49 µM | GI50 (SR leukemia): 4.1 µM | TGI (SR leukemia): 66.4 µM | GI50 (BT-549 breast): 2.99 µM | TGI (BT-549 breast): 11.7 µM | GI50 (U251 CNS): 4 µM | TGI (U251 CNS): 32.6 µM | GI50 (SW-620 colon): 5.54 µM | TGI (SW-620 colon): > 100 µM | GI50 (OVCAR-8 ovarian): 4.69 µM | TGI (OVCAR-8 ovarian): > 100 µM | GI50 (SK-MEL-28 melanoma): 5.52 µM | TGI (SK-MEL-28 melanoma): 54.6 µM | GI50 (M14 melanoma): 3.46 µM | TGI (M14 melanoma): 12.9 µM | GI50 (MCF7 breast): 3.56 µM | TGI (MCF7 breast): 11.2 µM | GI50 (SNB-19 CNS): 4.92 µM | TGI (SNB-19 CNS): > 100 µM | GI50 (A498 renal): 1.96 µM | TGI (A498 renal): 9.13 µM | GI50 (K-562 leukemia): 3.48 µM | TGI (K-562 leukemia): > 100 µM | GI50 (COLO 205 colon): 1.86 µM | TGI (COLO 205 colon): 3.38 µM | GI50 (NCI-H23 lung): 3.49 µM | TGI (NCI-H23 lung): 17.2 µM | GI50 (OVCAR-3 ovarian): 3.32 µM | TGI (OVCAR-3 ovarian): 12.7 µM | GI50 (SF-539 CNS): 3.91 µM | TGI (SF-539 CNS): 15.7 µM | GI50 (HCT-15 colon): 3.04 µM | TGI (HCT-15 colon): 16.5 µM | GI50 (NCI-H460 lung): 3.05 µM | TGI (NCI-H460 lung): 9.48 µM | GI50 (SF-268 CNS): 3.93 µM | TGI (SF-268 CNS): > 100 µM | GI50 (NCI-H226 lung): 3.13 µM | TGI (NCI-H226 lung): 19.4 µM | GI50 (A549 NSCLC): 3.26 µM | TGI (A549 NSCLC): > 100 µM | GI50 (UACC-62 melanoma): 4.2 µM | TGI (UACC-62 melanoma): 20 µM | GI50 (MDA-MB-435): 3.21 µM | TGI (MDA-MB-435): 12.3 µM | GI50 (SK-MEL-2 melanoma): 3.78 µM | TGI (SK-MEL-2 melanoma): 13.6 µM | GI50 (HOP-62 NSCLC): 10.5 µM | TGI (HOP-62 NSCLC): > 100 µM | GI50 (TK-10 renal): 4.42 µM | TGI (TK-10 renal): 55.9 µM | GI50 (PC-3 prostate): 3.18 µM | TGI (PC-3 prostate): 48.9 µM | GI50 (ACHN renal): 2.98 µM | TGI (ACHN renal): 20.1 µM | GI50 (OVCAR-4 ovarian): 2.43 µM | TGI (OVCAR-4 ovarian): 19 µM | GI50 (UO-31 renal): 3.56 µM | TGI (UO-31 renal): > 100 µM | GI50 (HCC-2998 colon): 4.39 µM | TGI (HCC-2998 colon): > 100 µM | GI50 (KM12 colon): 3.81 µM | TGI (KM12 colon): 18.4 µM | GI50 (IGROV1 ovarian): 6.66 µM | TGI (IGROV1 ovarian): > 100 µM | GI50 (786-0 renal): 3.82 µM | TGI (786-0 renal): 22.5 µM | GI50 (SK-MEL-5 melanoma): 1.71 µM | TGI (SK-MEL-5 melanoma): 3.26 µM | GI50 (MALME-3M melanoma): 3.01 µM | TGI (MALME-3M melanoma): 12.6 µM | GI50 (SNB-75 CNS): 3.5 µM | TGI (SNB-75 CNS): 55.2 µM | GI50 (RPMI-8226 leukemia): 2.51 µM | TGI (RPMI-8226 leukemia): 11.4 µM | GI50 (HCT-116 colon): 2.88 µM | TGI (HCT-116 colon): 11.4 µM | GI50 (SK-OV-3 ovarian): 6.79 µM | TGI (SK-OV-3 ovarian): > 100 µM | GI50 (UACC-257 melanoma): 4.26 µM | TGI (UACC-257 melanoma): 32.6 µM | GI50 (DU-145 prostate): 6.54 µM | TGI (DU-145 prostate): > 100 µM | GI50 (RXF 393 renal): 2.58 µM | TGI (RXF 393 renal): 8.08 µM | GI50 (NCI-H522 lung): 4.26 µM | TGI (NCI-H522 lung): 27.2 µM
